From ChEMBL document CHEMBL1201862, “PubChem BioAssay data set” (2004)
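All cell lines were grown in 96-well plates and treated with compound for 48 hours. GI50: concentration for 50% inhibition of growth.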 The source made the active and inactive calls. Cut-off read from the data, not from the text of the source: active = GI50 up to about 1.1 µM and inactive = higher.

Columns and labels:
Experiment in all cases: NCI tumour cell line growth inhibition, 48 h
NCI/ADR-RES = tested on: NCI/ADR-RES
MCF7 = tested on: MCF7
SF-268 = tested on: SF-268
TK-10 = tested on: TK-10
786-0 = tested on: 786-0
IGROV-1 = tested on: IGROV-1
SR = tested on: SR
MDA-N = tested on: MDA-N
OVCAR-3 = tested on: OVCAR-3
LOX IMVI = tested on: LOX IMVI
RPMI-8226 = tested on: RPMI-8226
OVCAR-5 = tested on: OVCAR-5
SNB-75 = tested on: SNB-75
CAKI-1 = tested on: CAKI-1
EKVX = tested on: EKVX
HCT-116 = tested on: HCT-116
NCI-H522 = tested on: NCI-H522
U-251 = tested on: U-251
SF-539 = tested on: SF-539
CCRF-CEM = tested on: CCRF-CEM

| Compound | GI50 (NCI/ADR-RES) | GI50 (MCF7) | GI50 (SF-268) | GI50 (TK-10) | GI50 (786-0) | GI50 (IGROV-1) | GI50 (SR) | GI50 (MDA-N) | GI50 (OVCAR-3) | GI50 (LOX IMVI) | GI50 (RPMI-8226) | GI50 (OVCAR-5) | GI50 (SNB-75) | GI50 (CAKI-1) | GI50 (EKVX) | GI50 (HCT-116) | GI50 (NCI-H522) | GI50 (U-251) | GI50 (SF-539) | GI50 (CCRF-CEM) |
| --- | --- | --- | --- | --- | --- | --- | --- | --- | --- | --- | --- | --- | --- | --- | --- | --- | --- | --- | --- | --- |
| Cc1ccc([N+](=O)[O-])cc1S(=O)(=O)Nc1ccc(C2=NN(S(=O)(=O)c3cc([N+](=O)[O-])ccc3C)C(c3cccs3)C2)cc1 (configuration not stated) | 31.6 µM (inactive) | 10.7 µM (inactive) | 28.1 µM (inactive) | 38.6 µM (inactive) | 44.2 µM (inactive) | 46.3 µM (inactive) | 24.1 µM (inactive) | 33.7 µM (inactive) | 19.6 µM (inactive) | 57 µM (inactive) | 21.9 µM (inactive) | 74 µM (inactive) | > 100 µM (inactive) | 44.1 µM (inactive) | 29 µM (inactive) | 26.5 µM (inactive) | 26.1 µM (inactive) | 30.1 µM (inactive) | – | – |
| Nc1nc2c(=O)c3ccccc3sc2s1 | 25.9 µM (inactive) | 5.96 µM (inactive) | 40.6 µM (inactive) | 41.5 µM (inactive) | 34.7 µM (inactive) | 43.2 µM (inactive) | 48.3 µM (inactive) | > 100 µM (inactive) | 56.2 µM (inactive) | 46.1 µM (inactive) | 33.6 µM (inactive) | 80.7 µM (inactive) | 40.5 µM (inactive) | 20.4 µM (inactive) | 23 µM (inactive) | 57.8 µM (inactive) | – | 45.1 µM (inactive) | 17.3 µM (inactive) | 78.3 µM (inactive) |
| N#CCCN(CCCN(CCCN(C(=O)Nc1ccccc1)c1ccccc1)C(=O)Nc1ccccc1)C(=O)Nc1ccccc1 | > 8.75 µM (inactive) | > 8.75 µM (inactive) | > 8.75 µM (inactive) | > 8.75 µM (inactive) | > 8.75 µM (inactive) | > 8.75 µM (inactive) | 0.998 µM (active) | > 8.75 µM (inactive) | > 8.75 µM (inactive) | > 100 µM (inactive) | 3.44 µM (inactive) | > 8.75 µM (inactive) | > 8.75 µM (inactive) | > 8.75 µM (inactive) | > 8.75 µM (inactive) | > 8.75 µM (inactive) | – | > 100 µM (inactive) | > 8.75 µM (inactive) | 6.14 µM (inactive) |
| O=C1Nc2ccccc2/C1=C\c1c(Cl)[nH]c2ccccc12 | 0.355 µM (active) | 0.366 µM (active) | 1.12 µM (active) | 1.35 µM (inactive) | 0.935 µM (active) | 0.139 µM (active) | 0.292 µM (active) | 0.24 µM (active) | 0.592 µM (active) | 1.07 µM (active) | 0.589 µM (active) | 1.44 µM (inactive) | – | 0.537 µM (active) | 1.06 µM (active) | 0.745 µM (active) | 0.736 µM (active) | 0.518 µM (active) | 0.374 µM (active) | 0.358 µM (active) |
| FC(F)(Sc1ccccc1)c1nc2ccccc2o1 | 18.6 µM (inactive) | 35.2 µM (inactive) | > 100 µM (inactive) | 75.2 µM (inactive) | 91.6 µM (inactive) | > 100 µM (inactive) | 22 µM (inactive) | 82.6 µM (inactive) | 34.4 µM (inactive) | – | 40.3 µM (inactive) | 59.7 µM (inactive) | – | > 100 µM (inactive) | – | 28.6 µM (inactive) | 34.6 µM (inactive) | 21.9 µM (inactive) | 63.8 µM (inactive) | 19.4 µM (inactive) |
| COc1ccc(N[C@H]([C@@H](c2ccccc2)[S+]([O-])c2ccc(C)cc2)C(F)(F)F)cc1 (some centres not stated) | 87.3 µM (inactive) | 38.9 µM (inactive) | – | 74.1 µM (inactive) | 39 µM (inactive) | 48.8 µM (inactive) | > 100 µM (inactive) | 74.8 µM (inactive) | > 100 µM (inactive) | 53.1 µM (inactive) | – | 40.6 µM (inactive) | 24.8 µM (inactive) | 46.7 µM (inactive) | 44 µM (inactive) | 29.4 µM (inactive) | 56.5 µM (inactive) | 17.9 µM (inactive) | 22.5 µM (inactive) | 21.8 µM (inactive) |
| COC(=O)C/N=C1\NC(=S)N(Cc2ccc(OC)cc2)C12CCCC2 | > 100 µM (inactive) | > 100 µM (inactive) | > 100 µM (inactive) | – | > 100 µM (inactive) | – | > 100 µM (inactive) | > 100 µM (inactive) | > 100 µM (inactive) | – | > 100 µM (inactive) | > 100 µM (inactive) | > 100 µM (inactive) | > 100 µM (inactive) | > 100 µM (inactive) | > 100 µM (inactive) | > 100 µM (inactive) | > 100 µM (inactive) | > 100 µM (inactive) | > 100 µM (inactive) |
| Cc1ccc(S(=O)(=O)NC(=O)NC(C(=O)O)C(C)O)cc1 (configuration not stated) | > 100 µM (inactive) | > 100 µM (inactive) | > 100 µM (inactive) | > 100 µM (inactive) | > 100 µM (inactive) | > 100 µM (inactive) | > 100 µM (inactive) | > 100 µM (inactive) | – | > 100 µM (inactive) | > 100 µM (inactive) | > 100 µM (inactive) | 33.3 µM (inactive) | – | – | > 100 µM (inactive) | > 100 µM (inactive) | > 100 µM (inactive) | > 100 µM (inactive) | > 100 µM (inactive) |
| CSC1=N/C(=C\c2ccco2)C(=O)N1CN1CCCCC1 | > 100 µM (inactive) | 17.3 µM (inactive) | 92.3 µM (inactive) | > 100 µM (inactive) | 54.6 µM (inactive) | 89.9 µM (inactive) | > 100 µM (inactive) | > 100 µM (inactive) | > 100 µM (inactive) | 33.7 µM (inactive) | 35.6 µM (inactive) | > 100 µM (inactive) | > 100 µM (inactive) | – | > 100 µM (inactive) | 50.4 µM (inactive) | > 100 µM (inactive) | > 100 µM (inactive) | – | – |
| COc1ccc(C2C(C#N)=C(S)N(C3OC(CO)C(O)C(O)C3O)C(c3ccccc3)=C2C(C)=O)cc1 (configuration not stated) | > 100 µM (inactive) | 72.1 µM (inactive) | 45.7 µM (inactive) | > 100 µM (inactive) | 67.3 µM (inactive) | > 100 µM (inactive) | 40.3 µM (inactive) | 37.2 µM (inactive) | 22.2 µM (inactive) | 60.1 µM (inactive) | 51.3 µM (inactive) | > 100 µM (inactive) | 23.6 µM (inactive) | – | – | 70.6 µM (inactive) | 26.9 µM (inactive) | 53.2 µM (inactive) | 78.2 µM (inactive) | 63.1 µM (inactive) |
| COc1cc(C=O)cc(/C=N/c2ccccn2)c1O | 10.8 µM (inactive) | 52.1 µM (inactive) | 3.37 µM (inactive) | 79.4 µM (inactive) | 7.36 µM (inactive) | – | 2.18 µM (inactive) | 7.23 µM (inactive) | 19.8 µM (inactive) | 14.1 µM (inactive) | 4.85 µM (inactive) | 15.8 µM (inactive) | 3.78 µM (inactive) | 2.94 µM (inactive) | 23.4 µM (inactive) | 35.4 µM (inactive) | – | 13 µM (inactive) | 3.01 µM (inactive) | 4.67 µM (inactive) |
